Read-outs that look alike come from different tables or passages of the source.
Legend:
[1] = test system: IFNα-stimulated Kit225 T cells with STAT-dependent luciferase reporter; test: Kit225 T cell assay, STAT-dependent luciferase reporter, IFNα stimulated; assay type: cell-based, human; conditions: 5-6 hours, read-out: IFNa Kit225 Reporter, LE (IC50)
Method: (§1) Kit225 T cells with a stably-integrated STAT-dependent luciferase reporter were plated in RPMI (GIBCO) containing 10% heat-inactivated FBS (GIBCO) and 100 U/mL PenStrep (GIBCO). The cells were then stimulated with either 20 ng/mL human recombinant IL-23 or 200 U/mL human recombinant IFNα (PBL InterferonSource) for 5-6 hours. Luciferase expression was measured using the STEADY-GLO® Luciferase Assay System (PROMEGA®) according to the manufacturer's instructions.

[2] = test system: IL-23-stimulated Kit225 T cells with STAT-dependent luciferase reporter; test: Kit225 T cell assay, STAT-dependent luciferase reporter, IL-23 stimulated; assay type: cell-based, human; conditions: read-out: IL-23 Kit225 Reporter, LE (IC50)
Method: as §1

[3] = 200 U/mL human recombinant IFNα
[4] = 20 ng/mL human recombinant IL-23, 5-6 hours
[5] = Homo sapiens, KIT225, 200 U/mL human recombinant IFNα
[6] = Homo sapiens, KIT225, 20 ng/mL human recombinant IL-23, 5-6 hours

| Compound | IC50 [1, 3] [nM] | IC50 [2, 4] [nM] | IC50 [1, 5] [nM] | IC50 [2, 6] [nM] |
| --- | --- | --- | --- | --- |
| CNc1cc(Nc2cccn(-c3ccc(C(F)F)cc3)c2=O)nn2c(C(=O)NCC(C)(CO)CO)cnc12 [Example 19] | 400 | 330 |  |  |
| CNc1cc(Nc2cccn(-c3ncccn3)c2=O)nn2c(C(=O)N[C@@H]3C[C@@H]3F)cnc12 [Example 55] | 230 | 180 |  |  |
| CNc1cc(Nc2cc(F)cn(CCF)c2=O)nn2c(C(=O)NC3CC3)cnc12 [Example 21] | 110 | 610 |  |  |
| CCOc1ccc(-n2cccc(Nc3cc(NC)c4ncc(C(=O)N[C@@H]5C[C@@H]5F)n4n3)c2=O)nn1 [compound 260] |  |  | 10 | 10 |
| CNc1cc(Nc2cccn(-c3ccc(F)cc3)c2=O)nn2c(C(=O)NC3(C#N)CC3)cnc12 [Example 12] | 100 | 170 |  |  |
| CNc1cc(Nc2cncn(-c3ccc(C)nn3)c2=O)nn2c(C(=O)N[C@@H]3C[C@@H]3F)cnc12 [Example 80] | 330 | 1740 |  |  |
| CNc1cc(Nc2cccn(-c3ccc(C)nn3)c2=O)nn2c(C(=O)NC(C)COC)cnc12 (centres unmarked) [Example 234] | 140 | 290 |  |  |
| CNc1cc(Nc2cccn(-c3ccccn3)c2=O)nn2c(C(=O)N[C@@H]3CCOC3)cnc12 [Example 62] | 270 | 640 |  |  |
| CNc1cc(Nc2cccn(-c3cc(C)n(C)n3)c2=O)nn2c(C(=O)NC3CC3)cnc12 [Example 154] | 30 | 40 |  |  |
| O=C(N[C@H]1C[C@@H]1F)c1cnc2c3c(c(Nc4cccn(-c5ccccn5)c4=O)nn12)OCCN3 [Example 241] |  |  | 90 | 140 |
| CNc1cc(Nc2cccn(-c3nnc(C)s3)c2=O)nn2c(C(=O)N[C@@H]3C[C@@H]3F)cnc12 [Example 195] | 60 | 110 |  |  |
| CNc1cc(Nc2cccn(-c3ccc(C(F)F)cc3)c2=O)nn2c(C(=O)NC3CC3)cnc12 [Example 18] | 150 | 480 |  |  |
| CNc1cc(Nc2cccn(C)c2=O)nn2c(C(=O)N[C@@H]3CCOC3)cnc12 [Example 57] | 520 | 300 |  |  |
| CNc1cc(Nc2cccn(-c3ccc(C)nn3)c2=O)nn2c(C(=O)NCC(C)C)cnc12 [Example 200] | 260 | 110 |  |  |

Other lines, results leading:

| IC50 [1, 3] [nM] | IC50 [2, 4] [nM] | IC50 [1, 5] [nM] | IC50 [2, 6] [nM] | Compound |
| --- | --- | --- | --- | --- |
| 200 | 340 |  |  | CNc1cc(Nc2cccn(-c3ccc(F)cc3)c2=O)nn2c(C(=O)NCC3(CO)CC3)cnc12 [Example 29] |
| 30 | 50 |  |  | CNc1cc(Nc2cccn(-c3cc(C)n(C)n3)c2=O)nn2c(C(=O)N[C@@H]3C[C@@H]3F)cnc12 [Example 160] |
| 200 | 370 |  |  | CNc1cc(Nc2cccn(C3CC3)c2=O)nn2c(C(=O)NC3(C#N)CC3)cnc12 [Example 45] |
| 40 | 150 |  |  | CNc1cc(Nc2cc(F)cn(C)c2=O)nn2c(C(=O)NCC(C)(C)CO)cnc12 [Example 24] |
|  |  | 450 | 180 | CNc1cc(Nc2cccn(-c3ccc(CO)cn3)c2=O)nn2c(C(=O)NC3CC3)cnc12 [compound 253] |
| 80 | 200 |  |  | CNc1cc(Nc2cccn(-c3cccnn3)c2=O)nn2c(C(=O)NC3CCC3)cnc12 [Example 104] |
| 80 | 210 |  |  | CNc1cc(Nc2cccn(-c3ccn(C)n3)c2=O)nn2c(C(=O)NC(C)C)cnc12 [Example 108] |
| 70 | 200 |  |  | CNc1cc(Nc2cccn(-c3ccccc3)c2=O)nn2c(C(=O)NC3(C#N)CC3)cnc12 [Example 120] |
| 110 | 190 |  |  | CNc1cc(Nc2cccn(-c3ccc(C)nn3)c2=O)nn2c(C(=O)NC(C)C)cnc12 [Example 97] |
|  |  | 110 | 90 | CNc1cc(Nc2cccn(-c3cnc(C(=O)N(C)C)cn3)c2=O)nn2c(C(=O)NCC(C)(C)CO)cnc12 [compound 262] |
|  |  | 250 | 500 | CCC(=O)N1CCC(n2cccc(Nc3cc(NC)c4ncc(C(=O)NC5CC5)n4n3)c2=O)CC1 [Example 249] |

From patent US10273237B2, “Imidazopyridazine compounds useful as modulators of IL-12, IL-23 and/or IFN-α responses” (BRISTOL-MYERS SQUIBB COMPANY, priority 2013, dated 2019)
